This is an account of results in ChEMBL document CHEMBL5260832, “Hepatoprotective natural triterpenoids” (Eur J Med Chem, 2018).

Series [1] concerns Hepatocyte. Briefly: Hepatoprotective activity against CCL4-induced rat hepatocyte toxicity assessed as decrease in ALP level at 3.33 mg/mL preincubated for 30 mins followed by CCL4 addition and measured after 180 mins by colorimetric method. In kind it is functional. The note with it: time 210.0 min.
Series [2] relates to Mus musculus. The series is described as follows: Hepatoprotective activity against CCl4-induced liver injury mouse model assessed as reduction in AST at 20 ug/mL, ip relative to control (reference value: 9.27 IU/L). In kind it is functional. The note with it: dose 20.0 µg/ml.
The test system of series [3] is Mus musculus. Briefly: Hepatoprotective activity against D-GaIN/LPS induced liver injury mouse model assessed as reduction in LDH level at 100 mg/kg, ip relative to control. The format is functional. On the set-up: scale not given: the % may be the effect or the level left.
The subject of series [4] is Mus musculus. Briefly: Hepatoprotective activity against CCl4-induced liver injury mouse model assessed as increase in SOD level at 20 ug/mL, ip relative to control (reference value: 5.89 IU/L). In kind it is functional. To be noted: dose 20.0 µg/ml.
The test system of series [5] is Mus musculus. The series is described as follows: Hepatoprotective activity against CCl4-induced liver injury mouse model assessed as reduction in ALT at 20 ug/mL, ip relative to control (reference value: 13.23 IU/L). In kind it is functional. The note with it: dose 20.0 µg/ml.
In series [6] the test system is Mus musculus. Briefly: Hepatoprotective activity against CCl4-induced liver injury mouse model assessed as reduction in MDA level at 20 ug/mL, ip relative to control (reference value: 9.27 IU/L). In kind it is functional. To be noted: dose 20.0 µg/ml.
Series [7] deals with Hepatocyte. Briefly: Hepatoprotective activity against CCL4-induced rat hepatocyte toxicity assessed as decrease in GOT level at 3.33 mg/mL preincubated for 30 mins followed by CCL4 addition and measured after 180 mins by colorimetric method. The format is functional. The note with it: time 210.0 min.
Series [8] deals with Mus musculus. Briefly: Hepatoprotective activity against D-GaIN/LPS induced liver injury mouse model assessed as reduction in AST at 100 mg/kg, ip relative to control. The format is functional. On the set-up: scale not given: the % may be the effect or the level left.
Another series has as its system Huh-7. The series is described as follows: Hepatoprotective activity against CCL4-induced mouse model in human Huh-7 cells assessed as decrease in ALT level at 100 ug/mL. The note with it: dose 100.0 µg/ml. In kind it is functional.
The test system of series [9] is Mus musculus. The series is described as follows: Hepatoprotective activity against D-GaIN/LPS induced liver injury mouse model assessed as reduction in ALT at 100 mg/kg, ip relative to control. On the set-up: scale not given: the % may be the effect or the level left. In kind it is functional.
Series [10] relates to Hepatocyte. Briefly: Hepatoprotective activity against CCL4-induced rat hepatocyte toxicity assessed as decrease in GPT level at 3.33 mg/mL preincubated for 30 mins followed by CCL4 addition and measured after 180 mins by colorimetric method. In kind it is functional. The note with it: time 210.0 min.
The nature of series [11]: Hepatotoxicity in D-GaIN induced Wistar rat assessed as change in induction of TAT level for 10 days relative to control. The format is toxicity. To be noted: in vivo, 240 h, time 10 day. On the set-up: concentration or dose not given beside the values.
Series [12] in a line: Hepatotoxicity in D-GaIN induced Wistar rat assessed as change in GTP leakage level for 10 days relative to control. To be noted: in vivo, 240 h, time 10 day. The format is toxicity.
The species named for series [13] is Mus musculus. Briefly: Hepatoprotective activity against D-galactosamine-induced liver injury mouse model assessed as […] leakage at 50 ug/ml. To be noted: dose 50 µg/ml. In kind it is functional.
Series [14] has as its system L02. The series is described as follows: Protection against D-GalN-induced toxicity in L02 cells […] assessed as reduction in cell growth at 3.13 microg/ml relative to control. The format is functional, Homo sapiens. To be noted: dose 3.13 µg/ml. Also noted: scale not given: the % may be the effect or the level left.
The test system of series [15] is L02. The series is described as follows: Protection against D-GalN-induced toxicity in L02 cells […] assessed as reduction in cell growth at 6.25 microg/ml relative to control. The note with it: dose 6.25 µg/ml. In kind it is functional, Homo sapiens. On the set-up: scale not given: the % may be the effect or the level left.
In series [16] the test system is L02. The series is described as follows: Protection against D-GalN-induced toxicity in L02 cells […] assessed as reduction in cell growth relative to control. Also noted: scale not given: the % may be the effect or the level left. The format is functional, Homo sapiens.
For series [17], the species on record is Mus musculus. The series is described as follows: Hepatoprotective activity in mouse liver homogenate assessed as inhibition of iron/ascorbate lipid peroxidation at 5.0 mg/mL relative to control. The format is functional. On the set-up: scale not given: the % may be the effect or the level left.
Series [18] is filed under the species Mus musculus. Briefly: Hepatoprotective activity in mouse liver homogenate assessed as inhibition of iron/ascorbate lipid peroxidation at 0.1 mg/mL relative to control. In kind it is functional. On the set-up: scale not given: the % may be the effect or the level left.
For series [19], the species on record is Mus musculus. The series is described as follows: Hepatoprotective activity in CCl4-induced mouse assessed as change in SGPT level (reference value: 6.9 mmol/L). The format is functional.
Series [20] concerns HepG2. The series is described as follows: Hepatoprotective activity against H2O2-induced human HepG2 cells assessed as increase in ALT level. In kind it is functional.
The subject of series [21] is HepG2. Briefly: Hepatoprotective activity against H2O2-induced human HepG2 cells assessed as increase in AST level at 25.55 uM. In kind it is functional.
Series [22] is described as follows: Hepatotoxicity in DMF-induced ICR mouse model assessed as change in CAT level, po measured after 7 days. The format is toxicity, organism-based. To be noted: in vivo, 168 h, time 7 day.
Series [23] in a line: Hepatotoxicity in CCl4-induced ICR mouse model assessed as change in GSH-PX level, po measured after 7 days. The format is toxicity, organism-based. To be noted: in vivo, 168 h, time 7 day.
The nature of series [24]: Hepatotoxicity in DMF-induced ICR mouse model assessed as change in SOD level, po measured after 7 days. In kind it is toxicity, organism-based. The note with it: in vivo, 168 h, time 7 day.
The nature of series [25]: Hepatotoxicity in CCl4-induced ICR mouse model assessed as change in CAT level, po measured after 7 days. The format is toxicity, organism-based. The note with it: in vivo, 168 h, time 7 day.
A short description of series [26]: Hepatotoxicity in DMF-induced ICR mouse model assessed as change in GSH-PX level, po measured after 7 days. In kind it is toxicity, organism-based. The note with it: in vivo, 168 h, time 7 day.
Series [27] can be described thus: Hepatotoxicity in CCl4-induced ICR mouse model assessed as change in SOD level, po measured after 7 days. The note with it: in vivo, 168 h, time 7 day. In kind it is toxicity, organism-based.
The nature of series [28]: Hepatotoxicity in acetaminophen-induced Wistar rat assessed as reduction in liver damage by measuring histological score at 50 to 100 mg/kg (reference value: 4.83). The format is toxicity, organism-based. To be noted: in vivo, dose 50-100 mg/kg.

For the compound SILYMARIN, the Activity is 13.7 IU/L with Hepatocyte [1]; 4.24 IU/L with Mus musculus [2]; 43% in the series on Mus musculus [3]; 21.7 U/ml with Mus musculus [4]; 4.82 U/ml with Mus musculus [5]; 3.84 nmol/mL with Mus musculus [6]. Further, the Activity is 18.5 IU/L with Hepatocyte [7]; 66% in the series on Mus musculus [8]; 10.2 U/ml with Huh-7; 68% in the series with Mus musculus [9]; 11.3 IU/L in the series with Hepatocyte [10].
On to `CC1(C)CC[C@]2(C)CC[C@]3(C)C(=CC[C@@H]4[C@@]5(C)CC[C@@H](O)C(C)(C)[C@@H]5CC[C@]43C)[C@@H]2C1`, for which the results for the Activity (in [11]; in series [12]; in the series listed under Mus musculus [13]) were 70.2%, 5.3% and 60.8%, respectively.
For the compound `CC(C)(O[C@@H]1O[C@H](CO)[C@@H](O)[C@H](O)[C@H]1O)[C@@H]1CC[C@@H]([C@H]2[C@H](O)C[C@]3(C)[C@@H]2CC[C@@H]2[C@@]4(C)CC[C@H](O[C@@H]5O[C@H](CO)[C@@H](O)[C@H](O)[C@H]5O[C@@H]5O[C@H](CO)[C@@H](O)[C@H](O)[C@H]5O)C(C)(C)[C@@H]4CC[C@]23C)O1`, the values for the Activity in the series on L02 [14], with L02 [15] and in the series on L02 [16] were 22.8%, 22.8% and 46.7%, respectively.
On to `CC1(C)CC[C@]2(C(=O)O)CC[C@]3(C)C(=CC[C@@H]4[C@@]5(C)CC[C@H](O)C(C)(C)[C@@H]5CC[C@]43C)[C@@H]2C1` [OLEANOLIC_ACID], for which the figures for the Activity in the series filed under Mus musculus [17], in the series filed under Mus musculus [18] and in the series listed under Mus musculus [19] were 38.8%, 13.7% and 3.64 mmol/L, respectively.
On to `CC1(C)CC[C@]2(C(=O)O)CC[C@]3(C)C(=CC[C@@H]4[C@@]5(C)CCC(OC(=O)/C=C/c6ccc(O)c(O)c6)C(C)(C)[C@@H]5CC[C@]43C)[C@@H]2C1` (stereo partly drawn), for which the Activity in the series listed under Mus musculus [19] is given as 3.53 mmol/L.
Take `CC(=O)[C@H]1CC(=O)[C@@]2(C)C3=C(C(=O)C[C@]12C)[C@@]1(C)CCC(=O)C(C)(C)[C@@H]1CC3=O`: the Activity in the series with HepG2 [20] amounted to 21.42 U/L; with HepG2 [21], 26.83 U/L.
For the compound `C[C@@H]1O[C@@H](O[C@H]2[C@H](OC(=O)[C@]34CCC(C)(C)C[C@H]3C3=CC[C@@H]5[C@@]6(C(=O)O)CC[C@H](O)[C@@](C)(C(=O)O)[C@@H]6CC[C@@]5(C)[C@]3(C)CC4)O[C@H](C)[C@H](O)[C@@H]2O)[C@H](O)[C@H](O)[C@H]1O[C@@H]1O[C@H](CO)[C@@H](O[C@@H]2OC[C@@H](O)[C@H](O)[C@H]2O)[C@H](O)[C@H]1O`, the Activity turned out to be 81.85 U/mg in [22]; 67.77 U/mg in series [23]; 196.16 U/mg in series [24]; 85.63 U/mg in [25]; 59.57 U/mg in [26]; 193.68 U/mg in series [27].
`CC1(C)CC[C@]2(C)CC[C@]3(C)C(=CC[C@@H]4[C@@]5(C)CC[C@H](O)C(C)(C)[C@@H]5CC[C@]43C)[C@@H]2C1` [beta-AMYRIN]: the Activity in series [11] stood at 40%; in [12], 49.4%; in series [28], 2.17; in the series listed under Mus musculus [13], 17.3%.
